Data on five compounds can be found in patent US8679776B2, “Activatable dyes” (University of Massachusetts, priority 2007, dated 2014).

The nature of series [1]: Photoactivation of NVOC-Oxazine 16 in vitro (acetonitrile solution, long-wave UV). In kind it is physicochemical. From the text: When novel, non-fluorescent caged dye (16) is irradiated with long-wave UV light (about 360 nm), the NVOC group is photolytically removed, and rapidly decarboxylates to form the oxazine 1 leuco dye (15). The non-fluorescent leuco dye rapidly reacts with oxygen in solution to generate the brightly fluorescent oxazine 1 dye (14). […] In such an evaluation, maximal emission was observed after less than four minutes using a hand-held longwave UV lamp. Irradiation in a fluorescence microscope, with either arc lamp or laser illumination, photoactivates this dye in less than 1 second due to the much higher photon flux through the microscope objective.
Referring to FIGS. 15A and 15B, NVOC-Oxazine 16 was dissolved in acetonitrile (2 mL) and placed in a fluorescence cuvette. The rate of photo-uncaging was monitored by continuous excitation at 365 nm and emission detection at 665 nm in a SPEX Fluoromax-3. Under these conditions, fluorescence activation reached a maximum in approximately two minutes.

A further series deals with CHO-K1 cells. Kind of series: Photoactivation in live mammalian tissue culture cells. In kind it is cell-based. The protocol: Photoactivation of NVOC-MR121 in live CHO-K1 cells before (a) and after (b, c) brief exposure to DAPI-filtered light (˜100 ms). In (b) the field was limited to two cells, while in (c) the entire field was illuminated (40× objective). Cells were imaged with a Cy5 filter set.
Referring to FIGS. 16A (before) and 16B (after photoactivation), CHO-K1 cells were incubated with 1 μM of NVOC-Oxazine 16 for one hour, then imaged on a fluorescence microscope at 40× with a Cy5 filter set (Zeiss Axiovert 200M). […] All of these latent fluorophores are chemically stable in cells, and can be efficiently photoactivated 24 hours after initial incubation.

The next series concerns the target T1, Transferrin (Homo sapiens, UniProt P02787).
T1 construct: purchased Sigma-Aldrich
Kind of series: Labeling of transferrin with caged dye, SDS-PAGE imaged before and after photoactivation. The following applies: for near-IR fluorescence before photoactivation / near-IR fluorescence after photoactivation: 630 nm excitation, 670 nm long pass filter; for near-IR fluorescence after photoactivation: hand-held longwave UV lamp for 1 min. How it is done: FIG. 20 is an SDS-PAGE gel of transferrin labeled with a caged oxazine dye, imaged before and after photoactivation. Transferrin in lanes 1-3 is labeled with NVOC-MR121 (25). Lanes 4-6 are labeled with tetramethyl-rhodamine (TMR).
Transferrin (Sigma-Aldrich®, 5 mg) was dissolved in 0.5 ml of 0.1M NaHCO3, pH 8.3. The caged oxazine dye 25 (0.2 mg) in 0.02 ml of DMSO and added to the transferrin solution and incubated at room temperature for one hour. The labeled protein was separated from the dye on a PD-10 column, and analyzed by SDS-PAGE (FIG. 20). The transferrin conjugate was initially non-fluorescent (FIG. 20a).

T1 sequence (P02787 20-698, species assumed): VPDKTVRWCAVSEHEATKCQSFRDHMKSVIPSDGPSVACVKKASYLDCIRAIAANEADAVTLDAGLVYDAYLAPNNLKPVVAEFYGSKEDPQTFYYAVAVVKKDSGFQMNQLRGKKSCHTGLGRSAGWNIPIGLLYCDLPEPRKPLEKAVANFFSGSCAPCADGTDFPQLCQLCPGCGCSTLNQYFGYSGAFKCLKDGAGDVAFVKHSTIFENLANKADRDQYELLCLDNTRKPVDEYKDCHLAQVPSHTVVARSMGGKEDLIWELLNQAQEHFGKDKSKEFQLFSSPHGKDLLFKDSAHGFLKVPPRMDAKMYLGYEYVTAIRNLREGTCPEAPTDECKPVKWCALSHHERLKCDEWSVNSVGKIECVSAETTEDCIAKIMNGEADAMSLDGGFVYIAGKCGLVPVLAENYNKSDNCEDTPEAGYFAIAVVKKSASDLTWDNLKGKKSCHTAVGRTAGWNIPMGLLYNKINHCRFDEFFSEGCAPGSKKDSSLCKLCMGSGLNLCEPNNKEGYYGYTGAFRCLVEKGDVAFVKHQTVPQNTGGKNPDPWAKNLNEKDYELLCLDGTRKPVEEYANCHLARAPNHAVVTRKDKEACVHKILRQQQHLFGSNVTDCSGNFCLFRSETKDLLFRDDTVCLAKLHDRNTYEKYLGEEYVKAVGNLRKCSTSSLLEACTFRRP

In the case of `CCN(CC)c1ccc2nc3ccc(=[N+](CC)CC)cc-3oc2c1.[O-][Cl+3]([O-])([O-])[O-]` [oxazine 1, reference compound], in series [1] (active dye generated by uncaging), the maximal emission entry is recorded as “about 665 nm”.
In the case of Bis-NH NVOC-Oxazine [Compound 41], the “staining pattern after photoactivation” value with CHO-K1 cells is “more diffuse staining”.
Turning to NVOC-Oxazine [Compound 16], the cell permeability entry in the series on CHO-K1 cells is “cell-permeable”. The “cellular fluorescence after brief exposure to DAPI-filtered light” value in the series with CHO-K1 cells (1 μM, one hour incubation, 365 nm, <1 second, Cy5 filter set) is listed as “dramatic increase in cellular fluorescence”. Besides, the “time to maximal emission after exposure to long-wave UV light” value in series [1] (acetonitrile solution, hand-held longwave UV lamp, emission about 665 nm) is “less than four”. In addition, the “time for fluorescence activation to reach a maximum” value in series [1] (acetonitrile, continuous excitation at 365 nm, emission detection at 665 nm, SPEX Fluoromax-3) was “approximately two”. The “time to photoactivate in a fluorescence microscope” value in series [1] (arc lamp or laser illumination through the microscope objective) is recorded as “less than 1 second”.
Regarding “TMR-Tf: transferrin labeled with tetramethyl-rhodamine (TMR) [reference compound]”, the “fluorescence before photoactivation, TMR channel” value with Transferrin (SDS-PAGE, 520 nm excitation and 575DF20 filter) was “readily visible”.
With “transferrin conjugate: transferrin labeled with caged oxazine dye NVOC-MR121 NHS ester 25”, the “near-IR fluorescence before photoactivation” value is listed as “non-fluorescent” with Transferrin (SDS-PAGE) and “No near-IR fluorescence is visible” with Transferrin (SDS-PAGE, listed as labeled transferrin). Also, the “near-IR fluorescence after photoactivation” value with Transferrin is on record as “bright near-IR fluorescence”; with Transferrin (listed as labeled transferrin) it was “brightly fluorescent in the near-IR”.
